Experimental data published in ChEMBL document CHEMBL4673352, “Discovery of AZD4573, a Potent and Selective Inhibitor of CDK9 That Enables Short Duration of Target Engagement for the Treatment of Hematological Malignancies” (J Med Chem, 2020).
In brackets after ≈: the same amount, converted by molar mass.

How the values were obtained:
[1] = Lipophilicity, log D of compound in buffer/octanol at pH 7.4 by shake flask method; format: physicochemical
CDK9/cyclin T1 = CDK9/cyclin T1 (Homo sapiens, UniProt P50750); test: Inhibition of recombinant full length human N-terminal GST-fused CDK9 (1 to 372 residues)/His-tagged CyclinT1 (1 to 726 residues) expressed in baculovirus infected insect cells using FITC-X-GSRTPMY-NH2 as substrate preincubated for 10 mins followed by MgCl2 addition and measured after 90 mins in presence of 5 mM ATP by mobility shift assay
[2] = target: T1, Cyclin-dependent kinase 9 (Homo sapiens, UniProt P50750); test: Inhibition of CDK9 in human MCF7 cells assessed as reduction in RNA Polymerase 2 CTD phosphorylation at Ser2 residues measured after 6 hrs by immunofluorescence assay; format: cell-based
[3] = Solubility of compound in phosphate buffer at pH 7.4 using dried form of sample; format: physicochemical
[4] = Intrinsic clearance in rat cryopreserved hepatocytes assessed per million cells […]; format: ADME, cell-based, Hepatocyte; details: for hepatocyte CLint: cryopreserved hepatocytes, read-out: CLH
[5] = target: T1, Cyclin-dependent kinase 9; test: Inhibition of CDK9 in human MV4-11 cells assessed as induction of caspase-3/7 activation measured after 6 hrs followed by Caspase-glo reagent based assay; format: cell-based
[6] = Intrinsic clearance in human liver microsome; format: ADME, microsomes; details: for microsomal CLint: liver microsomes, read-out: CLH
[7] = Intrinsic clearance in human cryopreserved hepatocytes assessed per million cells […]; format: ADME, cell-based, Hepatocyte; details: read-out: CLH
[8] = phosphate buffer, read-out: solubility

Chain of CDK9/cyclin T1 (O60563 whole entry, the tested form may be a part): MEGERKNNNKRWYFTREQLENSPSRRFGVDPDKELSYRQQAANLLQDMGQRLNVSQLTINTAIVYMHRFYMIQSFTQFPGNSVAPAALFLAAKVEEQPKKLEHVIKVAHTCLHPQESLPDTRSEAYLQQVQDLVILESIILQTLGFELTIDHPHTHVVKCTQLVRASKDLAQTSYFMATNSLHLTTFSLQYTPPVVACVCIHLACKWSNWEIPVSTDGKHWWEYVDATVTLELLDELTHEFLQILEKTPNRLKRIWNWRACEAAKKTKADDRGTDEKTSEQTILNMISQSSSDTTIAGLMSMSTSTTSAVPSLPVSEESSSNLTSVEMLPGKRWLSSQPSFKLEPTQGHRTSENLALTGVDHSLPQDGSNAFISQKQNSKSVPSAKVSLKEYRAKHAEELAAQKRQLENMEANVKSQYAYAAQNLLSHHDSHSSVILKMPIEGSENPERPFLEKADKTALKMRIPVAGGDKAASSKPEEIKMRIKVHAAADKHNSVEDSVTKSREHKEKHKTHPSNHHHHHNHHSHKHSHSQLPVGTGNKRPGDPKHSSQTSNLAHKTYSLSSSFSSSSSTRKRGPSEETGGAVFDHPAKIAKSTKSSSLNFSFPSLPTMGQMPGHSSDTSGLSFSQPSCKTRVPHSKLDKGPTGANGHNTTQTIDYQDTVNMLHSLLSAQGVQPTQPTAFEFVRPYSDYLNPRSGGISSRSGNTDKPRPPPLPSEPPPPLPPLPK
Chain of CDK9/cyclin T1 (P50750 whole entry, the tested form may be a part): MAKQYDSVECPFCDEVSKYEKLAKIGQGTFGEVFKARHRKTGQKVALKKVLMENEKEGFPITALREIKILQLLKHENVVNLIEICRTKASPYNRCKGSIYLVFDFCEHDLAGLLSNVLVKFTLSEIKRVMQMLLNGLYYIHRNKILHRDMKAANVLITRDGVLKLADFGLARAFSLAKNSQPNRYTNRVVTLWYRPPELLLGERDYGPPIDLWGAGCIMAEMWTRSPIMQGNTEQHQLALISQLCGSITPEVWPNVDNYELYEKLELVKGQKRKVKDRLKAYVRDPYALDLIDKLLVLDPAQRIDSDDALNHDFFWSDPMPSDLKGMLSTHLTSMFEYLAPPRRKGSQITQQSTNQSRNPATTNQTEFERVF
T1 sequence (P50750 whole entry): as the sequence (P50750 whole entry, the tested form may be a part) above

| logD [1] | IC50 (CDK9/cyclin T1) | IC50 [2] | solubility [3, 8] | hepatocyte CLint [4] | EC50 [5] | solubility ([3]; buffer) | microsomal CLint [6] | hepatocyte CLint [7] | CLH ([4]; hepatocytes) | CLH ([6]; microsomes) | SMILES |
| --- | --- | --- | --- | --- | --- | --- | --- | --- | --- | --- | --- |
| 2.2 | 5300 nM | > 3000 nM | > 1000 µM | – | – | – | – | – | – | – | CC(=O)N[C@@H]1CCC[C@H](C(=O)Nc2cc(-c3cnc(C)n3C)c(Cl)cn2)C1 |
| 2.4 | 230 nM | 520 nM | 730 µM (≈ 278 µg/mL) | 33 µL/min/1e6 cells | 440 nM | – | < 3 µL/min/mg | – | – | – | CC(=O)N[C@@H]1CCC[C@H](C(=O)Nc2cc(-c3cnn4c3CCCC4)ccn2)C1 |
| 2.6 | 110 nM | 350 nM | 110 µM (≈ 46 µg/mL) | 34 µL/min/1e6 cells | 260 nM | – | < 3 µL/min/mg | – | – | – | CC(=O)N[C@@H]1CCC[C@H](C(=O)Nc2cc(-c3cnn4c3OCCC4)c(Cl)cn2)C1 |
| – | – | > 2300 nM | – | – | – | – | 24 µL/min/mg | < 1 µL/min/1e6 cells | – | – | CC(=O)N[C@@H]1CCC[C@H](C(=O)Nc2cc(-c3cn[nH]c3CC(C)(C)CO)c(Cl)cn2)C1 |
| 2.1 | 220 nM | 800 nM | 870 µM (≈ 375 µg/mL) | 7.7 µL/min/1e6 cells | 910 nM | – | < 3 µL/min/mg | – | – | – | CC(=O)N[C@@H]1CCC[C@H](C(=O)Nc2cc(-c3cnn4c3CN(C)CC4)c(Cl)cn2)C1 |
| 2.6 | 270 nM | 440 nM | 960 µM (≈ 374 µg/mL) | 10 µL/min/1e6 cells | 560 nM | – | 3.3 µL/min/mg | < 1 µL/min/1e6 cells | – | – | CC(=O)N[C@@H]1CCC[C@H](C(=O)Nc2cc(-c3cnn(C)c3C)c(Cl)cn2)C1 |
| 2.6 | 310 nM | 760 nM | 490 µM (≈ 197 µg/mL) | 19 µL/min/1e6 cells | 700 nM | – | 9.7 µL/min/mg | – | – | – | CC(=O)N[C@@H]1CCC[C@H](C(=O)Nc2cc(-c3cnc4n3CCC4)c(Cl)cn2)C1 |
| 2.7 | 660 nM | 1200 nM | 600 µM (≈ 250 µg/mL) | 12 µL/min/1e6 cells | 1200 nM | – | 16 µL/min/mg | – | – | – | CC(=O)N[C@@H]1CCC[C@H](C(=O)Nc2cc(-c3cnc4n3CCCC4)c(Cl)cn2)C1 |
| 2.4 | – | 860 nM | 860 µM (≈ 359 µg/mL) | 10 µL/min/1e6 cells | 670 nM | – | 6.2 µL/min/mg | – | – | – | CC(=O)N[C@@H]1CCC[C@H](C(=O)Nc2cc(-c3cnn4c3NCCC4)c(Cl)cn2)C1 |

The remaining lines, values behind:

| SMILES | logD [1] | IC50 (CDK9/cyclin T1) | IC50 [2] | solubility [3, 8] | hepatocyte CLint [4] | EC50 [5] | solubility ([3]; buffer) | microsomal CLint [6] | hepatocyte CLint [7] | CLH ([4]; hepatocytes) | CLH ([6]; microsomes) |
| --- | --- | --- | --- | --- | --- | --- | --- | --- | --- | --- | --- |
| CC(=O)N[C@@H]1CCC[C@H](C(=O)Nc2cc(-c3cnn4c3CC(C)C4)c(Cl)cn2)C1 (stereo in doubt; 28) | 3.4 | 26 nM | 36 nM | – | 97 µL/min/1e6 cells | 92 nM | 79 µM (≈ 32.9 µg/mL) | 13 µL/min/mg | – | – | – |
| CC(=O)N[C@@H]1CCC[C@H](C(=O)Nc2cc(-c3cnc(C)n3C(C)C)ccn2)C1 | 1.9 | 380 nM | 920 nM | 660 µM (≈ 253 µg/mL) | 7.4 µL/min/1e6 cells | 660 nM | – | 3.6 µL/min/mg | – | – | – |
| CC(=O)N[C@@H]1CCC[C@H](C(=O)Nc2cc(-c3cnn4c3CC(C)(C)CC4)ccn2)C1 | 3.1 | – | 48 nM | 640 µM (≈ 262 µg/mL) | 35 µL/min/1e6 cells | 39 nM | – | 29 µL/min/mg | 4.3 µL/min/1e6 cells | – | – |
| CC(=O)N[C@@H]1CCC[C@H](C(=O)Nc2cc(-c3nnn4c3CCCC4)c(Cl)cn2)C1 | 2 | 4400 nM | > 2600 nM | 530 µM (≈ 221 µg/mL) | – | – | – | – | – | – | – |
| CC(=O)N[C@@H]1CCC[C@H](C(=O)Nc2cc(-c3cnn4c3CC(C)(C)CC4)c(F)cn2)C1 | 3.6 | < 3 nM | 10 nM | 160 µM (≈ 68.4 µg/mL) | 42 µL/min/1e6 cells | 15 nM | – | 178 µL/min/mg | 23 µL/min/1e6 cells | – | – |
| CC(=O)N[C@@H]1CCC[C@H](C(=O)Nc2cc(-c3cnn4c3CC(C)(C)C4)ccn2)C1 | 2.8 | 29 nM | 150 nM | 970 µM (≈ 384 µg/mL) | 45 µL/min/1e6 cells | 100 nM | – | < 3 µL/min/mg | < 1 µL/min/1e6 cells | – | – |
| CC(=O)N[C@@H]1CCC[C@H](C(=O)Nc2cc(-c3cnc4ccccn34)c(Cl)cn2)C1 | 3 | 750 nM | 1600 nM | 120 µM (≈ 49.4 µg/mL) | – | – | – | – | – | – | – |
| CC(=O)N[C@@H]1CCC[C@H](C(=O)Nc2cc(-c3cnn4ccccc34)c(Cl)cn2)C1 | 3.6 | 61 nM | 140 nM | 45 µM (≈ 18.5 µg/mL) | – | 150 nM | – | – | – | – | – |
| CC(=O)N[C@@H]1CC[C@H](C(=O)Nc2cc(-c3cnn4c3CC(C)(C)C4)c(Cl)cn2)C1 | 3.5 | – | 40 nM | 35 µM (≈ 14.6 µg/mL) | 97 µL/min/1e6 cells | 15 nM | – | 38 µL/min/mg | 5.8 µL/min/1e6 cells | – | – |
| CC(=O)N[C@@H]1CCC[C@H](C(=O)Nc2cc(-c3cnn4c3CCCC4)c(F)cn2)C1 | 2.9 | – | 100 nM | > 1000 µM | 73 µL/min/1e6 cells | 160 nM | – | < 3 µL/min/mg | – | – | – |
| CC(=O)N[C@@H]1CCC[C@H](C(=O)Nc2cc(-c3cnn4c3CC(C)C4)c(Cl)cn2)C1 (stereo in doubt; 27) | – | 27 nM | 77 nM | – | – | 77 nM | 159 µM (≈ 66.1 µg/mL) | – | – | 85 µL/min | 18 µL/min/mg |
| CC(=O)N[C@@H]1CCC[C@H](C(=O)Nc2cc(-c3cnn4c3COCC4)c(Cl)cn2)C1 | 2.4 | 1000 nM | 2100 nM | 220 µM (≈ 91.9 µg/mL) | 18 µL/min/1e6 cells | 1900 nM | – | < 3 µL/min/mg | – | – | – |
| CC(=O)N[C@@H]1CCC[C@H](C(=O)Nc2cc(-c3cnn4c3CC(C)(C)C4)c(C)cn2)C1 | 3.1 | – | – | 600 µM (≈ 246 µg/mL) | 53 µL/min/1e6 cells | – | – | 19 µL/min/mg | – | – | – |
| CC(=O)N[C@@H]1CCC[C@H](C(=O)Nc2cc(-c3cnc4n3CC(C)(C)C4)c(Cl)cn2)C1 | 3.6 | – | – | 280 µM (≈ 120 µg/mL) | 28 µL/min/1e6 cells | – | – | 63 µL/min/mg | 2.5 µL/min/1e6 cells | – | – |
| CC(=O)N[C@@H]1CCC[C@H](C(=O)Nc2cc(-c3cnn4c3CC(C)(C)C4O)c(Cl)cn2)C1 (stereo partly drawn) | – | 20 nM | 170 nM | – | – | – | – | 14 µL/min/mg | 48 µL/min/1e6 cells | – | – |
| CC(=O)N[C@@H]1CCC[C@H](C(=O)Nc2cc(-c3cnn4c3CCC4)c(Cl)cn2)C1 | 2.9 | 180 nM | 530 nM | 160 µM (≈ 64.3 µg/mL) | 72 µL/min/1e6 cells | 330 nM | – | < 3 µL/min/mg | – | – | – |
| CC(=O)N[C@@H]1CCC[C@H](C(=O)Nc2cc(-c3cnn4c3CCCCC4)c(Cl)cn2)C1 | 3.6 | – | 92 nM | 104 µM (≈ 44.7 µg/mL) | 51 µL/min/1e6 cells | 180 nM | – | 39 µL/min/mg | 4.6 µL/min/1e6 cells | – | – |
| CC(=O)N[C@@H]1CCC[C@H](C(=O)Nc2cc(-c3cnn4c3CC(C)(C)C4)c(C#N)cn2)C1 | 3.2 | – | 150 nM | 380 µM (≈ 160 µg/mL) | 47 µL/min/1e6 cells | 140 nM | – | 26 µL/min/mg | < 1 µL/min/1e6 cells | – | – |
| CC1(C)Cc2c(-c3cc(NC(=O)[C@H]4C[C@@H](O)C4)ncc3Cl)cnn2C1 | 3.2 | – | 44 nM | 15 µM (≈ 5.41 µg/mL) | 157 µL/min/1e6 cells | 38 nM | – | 25 µL/min/mg | 106 µL/min/1e6 cells | – | – |
